Target: T1, QPCTL (Homo sapiens, UniProt Q9NXS2)
T1 construct: made in house
Test: Assay A: biochemical QPCTL activity assay (MALDI-TOF MS, CD47 peptide substrate)
Details: Table 2, compounds of the invention, read-out: Inhibition of QPCTL: IC50
Protocol: (§1) QPCT or QPCTL dependent conversion of N-terminal glutamine to pyroglutamate of CD47 was monitored via MALDI-TOF MS. Test compounds were dissolved in 100% DMSO and serially diluted into clear 1,536-well microtiter plates. Enzymatic reactions were set up in assay buffer containing 20 mM Tris pH 7.5, 0.1 mM TCEP, 0.01% BSA, and 0.001% Tween20. […] The plates were incubated for 10 min in a humidified incubator at 24° C. Subsequently, 2.5 μL of CD47 peptide substrate surrogate (^19[…]^33) was added to each well (final concentration: 10 μM for QPCTL/20 μM for QPCT). The plates were mixed for 30 sec at 1,000 rpm and subsequently incubated for 40 min in a humidified incubator at 24° C. […] The plates were sealed with an adhesive foil, mixed for 30 s at 1,000 rpm and stored at room temperature until preparation of the MALDI target plates. MALDI target plates were prepared as described previously. […] QPCT or QPCTL activity was monitored by calculating the ratio between product and internal standard signals followed by normalization to high (100% activity) and low (0% activity) controls. Determination of compound potencies was obtained by fitting the dose-response data to a four-parameter logistical equation.

T1 sequence (Q9NXS2 whole entry, species assumed): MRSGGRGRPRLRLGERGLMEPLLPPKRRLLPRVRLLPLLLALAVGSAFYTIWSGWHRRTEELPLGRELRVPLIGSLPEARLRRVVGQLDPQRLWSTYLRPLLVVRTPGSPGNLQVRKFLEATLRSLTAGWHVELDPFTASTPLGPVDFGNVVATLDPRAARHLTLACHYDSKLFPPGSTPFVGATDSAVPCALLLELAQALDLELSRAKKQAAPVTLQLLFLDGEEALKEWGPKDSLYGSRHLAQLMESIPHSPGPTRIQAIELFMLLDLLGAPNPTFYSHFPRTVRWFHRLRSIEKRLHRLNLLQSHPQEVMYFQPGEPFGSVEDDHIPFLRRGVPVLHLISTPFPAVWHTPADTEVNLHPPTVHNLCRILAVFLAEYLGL

**Q.** For `Cn1cnnc1C1(F)CCN(c2c(C#N)cc(C3CC3)nc2-c2cnc3nn(C)c(C(F)(F)F)c3c2)CC1` [Example 11], which IC50 is on record?
**A.** 3 nM

**Q.** For `Cc1ncc(-c2cc(C#N)c(N3CCC(F)(c4nncn4C)CC3)c(-c3cnc4nn(C(F)(F)F)cc4c3)n2)o1` [Example 19], which IC50 is on record?
**A.** 2 nM

**Q.** Which IC50 does the source give for `Cc1cc(-c2nc(C3CC3)cc(C#N)c2N2CCC(F)(c3nncn3C)CC2)cnn1` [Example 12] here?
**A.** 16 nM

Tested on: CYP3A4 mRNA
Test: Assay D: CYP induction screening assay in primary human hepatocytes
Format: in vitro ADME
Details: Table 9, compounds of the invention, 48 h
Protocol: Cryopreserved plateable human hepatocytes (single donor. BioIVT) were thawed and plated in Collagen-I coated 96-well-plates at a cell density of 0.07 million cells per well.
After a 6 h attachment period, the seeding medium was replaced by serum-free William's medium E supplemented with Matrigel (0.25 mg/ml) and allowed to recover overnight. 24 h post-seeding, serum-free Williams E medium containing the test compound at a final concentration of […] and a final DMSO content of 0.1% and 0.1% DMSO (solvent-treated control), respectively, was added to predefined wells. Exposure solutions were renewed after 24 h.
After 48 h of treatment in total, the effect of the test compounds on CYP3A4 mRNA expression was assessed using the QuantiGene Plex Gene Expression Assay. Hepatocytes were lysed and total RNA was extracted using the QuantiGene Sample Processing Kit according to the instructions of the manufacturer.
mRNA quantification was conducted using a customized QuantiGene Plex Panel to analyse CYP3A4 and the housekeeper genes RPL32, EIF4E2 and GUSB according to the instructions of the manufacturer and measured on a Luminex™ instrument. Signal was reported as median fluorescence intensity (MFI), which is proportional to the number of target RNA molecules present in the sample.
For calculation of CYP3A4 mRNA induction, the signal for CYP3A4 was normalized against the geometric mean of the signal obtained for the housekeeper genes for hepatocytes exposed to test compounds in relation to solvent-treated samples according to the following equation: […]

**Q.** With `Cn1cnnc1C1(F)CCN(c2c(C#N)cc(C3CC3)nc2-c2cnc3nn(C)c(C(F)(F)F)c3c2)CC1` [Example 11] as the compound, how does the “n-fold induction of CYP3A4 at 10 μM” value read?
**A.** 5.0 n-fold

**Q.** With `Cc1ncc(-c2cc(C#N)c(N3CCC(F)(c4nncn4C)CC3)c(-c3cnc4nn(C(F)(F)F)cc4c3)n2)o1` [Example 19] as the compound, how does the “n-fold induction of CYP3A4 at 10 μM” value read?
**A.** 1.1 n-fold

**Q.** For `Cc1cc(-c2nc(C3CC3)cc(C#N)c2N2CCC(F)(c3nncn3C)CC2)cnn1` [Example 12], which “n-fold induction of CYP3A4 at 10 μM” value is on record?
**A.** 4.1 n-fold

Tested on: murine hepatocytes
Test: Assay E: stability in murine hepatocytes
Format: in vitro ADME, mouse
Details: Table 12, compounds of the invention, 1 μM, 5% species serum
Protocol: The metabolic degradation of the test compound is assayed in a murine hepatocyte suspension.
Murine hepatocytes (typically cryopreserved) are incubated in an appropriate buffer system (e.g. Dulbecco's modified eagle medium plus 3.5 μg glucagon/500 mL, 2.5 mg insulin/500 mL and 3.75 mg/500 mL hydrocortison) containing 5% species serum.
Following a (typically) 30 min preincubation in an incubator (37° C., 10% CO2) 5 μl of test compound solution (80 μM; from 2 mM in DMSO stock solution diluted 1:25 with medium) are added into 395 μl hepatocyte suspension (cell density in the range 0.25-5 Mio cells/mL, typically 1 Mio cells/mL; final concentration of test compound 1 μM, final DMSO concentration 0.05%).
The cells are incubated for six hours (incubator, orbital shaker) and samples (25 μl) are taken at 0, 0.5, 1, 2, 4 and 6 hours. Samples are transferred into acetonitrile and pelleted by centrifugation (5 min). The supernatant is transferred to a new 96-deepwell plate, evaporated under nitrogen and resuspended.
Decline of parent compound is analyzed by HPLC-MS/MS
CLint is calculated as follows CL_[…]=Dose/AUC=(C0/CD)/(AUD+clast/k)×1000/60. C0: initial concentration in the incubation [μM], CD: cell density of vital cells [10e6 cells/mL], AUD: area under the data [μM×h], clast: concentration of last data point [μM], k: slope of the regression line for parent decline [h−1].
The calculated in vitro hepatic intrinsic clearance can be scaled up to the intrinsic in vivo hepatic Clearance and used to predict hepatic in vivo blood clearance (CL) by the use of a liver model (well stirred model).
[formula] [formula] [formula] • Hepatocellularity, mouse: 120×10e6 cells/g liver • Liver factor, mouse: 55 g/kg bodyweight • Blood flow, mouse: 90 ml/(min×kg)

**Q.** For `Cn1cnnc1C1(F)CCN(c2c(C#N)cc(C3CC3)nc2-c2cnc3nn(C)c(C(F)(F)F)c3c2)CC1` [Example 11], which “Mouse Hepatocyte Stability QH” value is on record?
**A.** 32%

**Q.** With `Cc1ncc(-c2cc(C#N)c(N3CCC(F)(c4nncn4C)CC3)c(-c3cnc4nn(C(F)(F)F)cc4c3)n2)o1` [Example 19] as the compound, how does the “Mouse Hepatocyte Stability QH” value read?
**A.** <12%

**Q.** Which “Mouse Hepatocyte Stability QH” value does the source give for `Cc1cc(-c2nc(C3CC3)cc(C#N)c2N2CCC(F)(c3nncn3C)CC2)cnn1` [Example 12] here?
**A.** 21%

Tested on: not listed separately
Test: Assay C: permeability in CACO-2 cells
Format: in vitro ADME
Details: human, pH 7.2; Table 7, compounds of the invention, CACO-2 cells
Protocol: Caco-2 cells (1-2×10^5 cells/1 cm^2 area) are seeded on filter inserts (Costar transwell polycarbonate or PET filters, 0.4 μm pore size) and cultured (DMEM) for 10 to 25 days. Compounds are dissolved in appropriate solvent (like DMSO, 1-20 mM stock solutions). […] The transport solution (TL) is applied to the apical or basolateral donor side for measuring A-B or B-A permeability (3 filter replicates), respectively. Samples are collected at the start and end of experiment from the donor and at various time intervals for up to 2 hours also from the receiver side for concentration measurement by HPLC-MS/MS or scintillation counting. Sampled receiver volumes are replaced with fresh receiver solution.
Efflux ratio (ER)=permeability B−A/permeability A−B

**Q.** Which Papp A→B does the source give for `Cn1cnnc1C1(F)CCN(c2c(C#N)cc(C3CC3)nc2-c2cnc3nn(C)c(C(F)(F)F)c3c2)CC1` [Example 11] here?
**A.** 32 ×10⁻⁶ cm/s

**Q.** With `Cc1ncc(-c2cc(C#N)c(N3CCC(F)(c4nncn4C)CC3)c(-c3cnc4nn(C(F)(F)F)cc4c3)n2)o1` [Example 19] as the compound, how does the Papp A→B read?
**A.** 8.1 ×10⁻⁶ cm/s

**Q.** For `Cc1cc(-c2nc(C3CC3)cc(C#N)c2N2CCC(F)(c3nncn3C)CC2)cnn1` [Example 12], which Papp A→B is on record?
**A.** 5.6 ×10⁻⁶ cm/s

Same assay, conditions: human, pH 7.2; Table 7, compounds of the invention, CACO-2 cells, permeability B-A/permeability A-B; read-out: Efflux Ratio

**Q.** With `Cn1cnnc1C1(F)CCN(c2c(C#N)cc(C3CC3)nc2-c2cnc3nn(C)c(C(F)(F)F)c3c2)CC1` [Example 11] as the compound, how does the efflux ratio read?
**A.** 2.5

**Q.** With `Cc1ncc(-c2cc(C#N)c(N3CCC(F)(c4nncn4C)CC3)c(-c3cnc4nn(C(F)(F)F)cc4c3)n2)o1` [Example 19] as the compound, how does the efflux ratio read?
**A.** 7.2

**Q.** With `Cc1cc(-c2nc(C3CC3)cc(C#N)c2N2CCC(F)(c3nncn3C)CC2)cnn1` [Example 12] as the compound, how does the efflux ratio read?
**A.** 9.5

Target: T2, QPCT (Homo sapiens, UniProt Q16769)
T2 construct: purchased Origine (OriGene) TP700028
Test: Assay A: biochemical QPCT activity assay (MALDI-TOF MS, CD47 peptide substrate)
Details: Table 2, compounds of the invention, read-out: Inhibition of QPCT: IC50
Protocol: as §1

T2 sequence (Q16769 29-361): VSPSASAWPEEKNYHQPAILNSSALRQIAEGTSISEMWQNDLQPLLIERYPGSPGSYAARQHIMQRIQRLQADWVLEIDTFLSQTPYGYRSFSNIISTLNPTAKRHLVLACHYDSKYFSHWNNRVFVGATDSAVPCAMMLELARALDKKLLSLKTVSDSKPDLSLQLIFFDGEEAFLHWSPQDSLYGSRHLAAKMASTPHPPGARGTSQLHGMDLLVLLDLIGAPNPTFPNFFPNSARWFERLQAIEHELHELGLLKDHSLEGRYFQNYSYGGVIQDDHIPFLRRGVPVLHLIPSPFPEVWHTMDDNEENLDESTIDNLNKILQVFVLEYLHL

**Q.** With `Cn1cnnc1C1(F)CCN(c2c(C#N)cc(C3CC3)nc2-c2cnc3nn(C)c(C(F)(F)F)c3c2)CC1` [Example 11] as the compound, how does the IC50 read?
**A.** 3 nM

**Q.** With `Cc1ncc(-c2cc(C#N)c(N3CCC(F)(c4nncn4C)CC3)c(-c3cnc4nn(C(F)(F)F)cc4c3)n2)o1` [Example 19] as the compound, how does the IC50 read?
**A.** 2 nM

**Q.** With `Cc1cc(-c2nc(C3CC3)cc(C#N)c2N2CCC(F)(c3nncn3C)CC2)cnn1` [Example 12] as the compound, how does the IC50 read?
**A.** 14 nM

Tested on: SIRPα signalling induced by Raji cells
Test: Assay B: SIRPα signalling assay using Raji cells
Format: cell-based
Details: Homo sapiens, Table 4, compounds of the invention, read-out: Inhibition of SIRPα signalling induced by Raji cells: IC50
Protocol: Bioassay reagent 1 of the PathHunter Bioassay detection kit (DiscoverX 93-0001) was added to each well of the plate using a multichannel pipette followed by a 15 min incubation at room temperature. Afterwards bioassay reagent 2 was added followed by 60 min incubation at room temperature (incubation in the dark).
(§2) The analysis of the data was performed using the luminescence signal generated by beta-galactosidase in the PathHunter reporter cell line. The luminescence measurement was done using a Pherastar Multi-Mode Reader.

**Q.** With `Cn1cnnc1C1(F)CCN(c2c(C#N)cc(C3CC3)nc2-c2cnc3nn(C)c(C(F)(F)F)c3c2)CC1` [Example 11] as the compound, how does the IC50 read?
**A.** 167 nM

**Q.** Which IC50 does the source give for `Cc1ncc(-c2cc(C#N)c(N3CCC(F)(c4nncn4C)CC3)c(-c3cnc4nn(C(F)(F)F)cc4c3)n2)o1` [Example 19] here?
**A.** 139 nM

**Q.** With `Cc1cc(-c2nc(C3CC3)cc(C#N)c2N2CCC(F)(c3nncn3C)CC2)cnn1` [Example 12] as the compound, how does the IC50 read?
**A.** 950 nM

Tested on: SIRPα signalling induced by A549 cells
Test: Assay B: SIRPα signalling assay using A549 cells
Format: cell-based
Details: Homo sapiens, Table 4, compounds of the invention, read-out: Inhibition of SIRPα signalling induced by A549 cells: IC50
Protocol: Two cell types are independently used: the Raji cell line (lymphoblast-like human cell line derived from B lymphocytes from a Burkitt's lymphoma patient in 1963) and A549 cells (adenocarcinoma human alveolar basal epithelial cells).
Test compounds were dissolved in 100% DMSO and serially diluted into a white 384-well microtiter cell culture plate (PerkinElmer #60076780 in case of Raji assay; PDL-coated plates Greiner #781945 in case of A549 assay). 5000 Raji cells (ATCC #CC86) or 5000 A549 cells (ATCC #CCL-185) in Assay Complete Cell Plating reagent 30 (DiscoverX 93-0563R30B) were added per well. The assay plate was incubated for 48 h at 37° C., 95% humidity and 5% CO2. 15000 reporter cells (Jurkat PathHunter SIRPαV1, DiscoverX #93-1135C19) were added to each well, and the plate was incubated for 5 h at 37° C., 95% humidity and 5% CO2. Bioassay reagent 1 of the PathHunter Bioassay detection kit (DiscoverX 93-0001) was added to each well of the plate using a multichannel pipette followed by a 15 min incubation at room temperature. Afterwards bioassay reagent 2 was added followed by 60 min incubation at room temperature (incubation in the dark).
as §2, with “Reader. Dose-response curves & IC50 data were calculated with 4-parameter sigmoidal dose response formula.” for “Reader.”

**Q.** Which IC50 does the source give for `Cn1cnnc1C1(F)CCN(c2c(C#N)cc(C3CC3)nc2-c2cnc3nn(C)c(C(F)(F)F)c3c2)CC1` [Example 11] here?
**A.** 37 nM

**Q.** For `Cc1ncc(-c2cc(C#N)c(N3CCC(F)(c4nncn4C)CC3)c(-c3cnc4nn(C(F)(F)F)cc4c3)n2)o1` [Example 19], which IC50 is on record?
**A.** 25 nM

**Q.** With `Cc1cc(-c2nc(C3CC3)cc(C#N)c2N2CCC(F)(c3nncn3C)CC2)cnn1` [Example 12] as the compound, how does the IC50 read?
**A.** 145 nM
